# Measured values reported in patent US8975417B2, “Pyrazolopyrrolidine derivatives and their use in the treatment of disease” (Novartis AG, priority 2013, dated 2015).
# What was measured:
# [1] = target: His-CREBBP (1081-1197) bromodomain (Homo sapiens (Human), UniProt Q92793); assay: AlphaScreen in-vitro binding assay for CREBBP; details: biochemical
# In short: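 Ni-chelate acceptor and streptavidin donor beads (45 µg/mL each, in 50 mM HEPES pH 7.5, 150 mM NaCl, 0.02% BSA) were then added for 60 min at room temperature. IC50 came from 8-point non-linear regression.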
# His-Brd4(44-477) = His-Brd4(44-477) (Homo sapiens (Human), UniProt O60885); assay: TR-FRET in-vitro binding assay for BRD4; details: biochemical
# In short: (§1)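 Assay buffer HEPES pH 7.5/NaCl/Tween20/BSA; protein solution 45 nM, peptide solution 60 nM acetyl-H4 (AcK5,8,12,16). Incubated 30 °C for 35 min; Eu-anti-His6 and SA-APC detection, TR-FRET read.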
# K-562 cells = assay: Cell growth inhibition assay (CellTiter-Glo), K-562; type: cell-based, human; details: Homo sapiens, K562, read-out: K-562 TGI
# In short: (§2)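 CTG luminescence (cellular ATP) after compound treatment; values background- and day 0-corrected, vehicle (0.1% DMSO) = 100%, medium only = −100%. Dose range: 3-fold dilutions from 10 μM. IC50/TGI by 4-parameter fit.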
# His-Brd2(60-472) = His-Brd2(60-472) (Homo sapiens (Human), UniProt P25440); assay: TR-FRET in-vitro binding assay for BRD2; details: biochemical
# Chain of His-Brd2(60-472) (P25440 60-472): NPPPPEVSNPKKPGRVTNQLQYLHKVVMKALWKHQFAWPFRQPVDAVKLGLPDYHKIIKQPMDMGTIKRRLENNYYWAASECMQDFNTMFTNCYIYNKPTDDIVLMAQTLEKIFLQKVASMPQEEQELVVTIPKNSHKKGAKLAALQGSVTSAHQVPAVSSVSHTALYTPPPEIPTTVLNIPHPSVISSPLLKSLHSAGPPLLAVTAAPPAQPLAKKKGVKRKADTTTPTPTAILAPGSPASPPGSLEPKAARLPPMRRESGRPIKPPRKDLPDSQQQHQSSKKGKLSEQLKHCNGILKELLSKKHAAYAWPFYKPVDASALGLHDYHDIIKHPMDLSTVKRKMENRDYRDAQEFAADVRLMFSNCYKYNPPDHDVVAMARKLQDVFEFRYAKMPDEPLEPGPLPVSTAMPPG
# In short: as §1
# THP-1 cells = assay: Cell growth inhibition assay (CellTiter-Glo), THP-1; type: cell-based; details: Homo sapiens, read-out: THP-1 TGI
# In short: as §2
# MV-4-11 cells = assay: Cell growth inhibition assay (CellTiter-Glo), MV-4-11; type: cell-based; details: Homo sapiens, MV4-11, read-out: MV-4-11 TGI
# In short: as §2
# His-Brd3(20-477) = His-Brd3(20-477) (Homo sapiens (Human), UniProt Q15059); assay: TR-FRET in-vitro binding assay for BRD3; details: biochemical
# Chain of His-Brd3(20-477) (Q15059 20-477): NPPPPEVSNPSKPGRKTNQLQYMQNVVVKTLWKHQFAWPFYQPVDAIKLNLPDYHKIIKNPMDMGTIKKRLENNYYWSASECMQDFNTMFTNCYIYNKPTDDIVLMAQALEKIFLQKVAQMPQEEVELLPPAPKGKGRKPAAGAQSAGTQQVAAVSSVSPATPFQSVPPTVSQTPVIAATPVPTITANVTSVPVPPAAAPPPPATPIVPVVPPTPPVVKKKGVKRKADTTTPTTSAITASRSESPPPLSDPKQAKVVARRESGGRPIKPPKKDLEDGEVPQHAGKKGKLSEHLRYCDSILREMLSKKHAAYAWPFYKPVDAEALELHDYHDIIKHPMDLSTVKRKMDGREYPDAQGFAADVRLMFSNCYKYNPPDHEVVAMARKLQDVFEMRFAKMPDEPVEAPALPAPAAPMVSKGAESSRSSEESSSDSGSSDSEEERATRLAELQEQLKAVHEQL
# In short: as §1
# Chain of His-CREBBP (1081-1197) bromodomain (Q92793 1081-1197): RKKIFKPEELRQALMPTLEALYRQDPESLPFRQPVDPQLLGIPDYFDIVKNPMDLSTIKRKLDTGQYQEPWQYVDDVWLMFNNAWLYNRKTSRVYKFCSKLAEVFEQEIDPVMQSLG
SMILES,IC50 [1],IC50 (His-Brd4(44-477)),IC50 (His-Brd2(60-472)),IC50 (His-Brd3(20-477)),IC (total growth inhibition) (K-562 cells),IC (total growth inhibition) (THP-1 cells),IC (total growth inhibition) (MV-4-11 cells)
CCc1c2c(nn1C1CC1)C(=O)N(c1cc(C)c(=O)n(C)c1)C2c1ccc(Cl)cc1 (centres unmarked) [Example 68],950 nM,44 nM,37 nM,40 nM,> 10 µM,0.117 µM,0.0692 µM
CCc1nn(C2CC2)c2c1C(c1ccc(Cl)cc1)N(c1cc(C)c(=O)n(C)c1)C2=O (centres unmarked) [Example 69],4100 nM,27 nM,26 nM,28 nM,> 10 µM,0.0983 µM,0.0466 µM
"COc1ncccc1-n1nc(C)c2c1C(=O)N(c1cc(C)c(=O)n(C)c1)C2c1ccc(Cl)cc1 (centres unmarked) [Example 71, 4-(4-chlorophenyl)-5-(1,5-dimethyl-6-oxo-1,6-dihydropyridin-3-yl)-1-(2-methoxypyridin-3-yl)-3-methyl-4,5-dihydropyrrolo[3,4-c]pyrazol-6(1H)-one]",5900 nM,53 nM,41 nM,58 nM,> 10 µM,0.178 µM,0.103 µM
"COCc1nn(C2CC2)c2c1[C@@H](c1ccc(Cl)cc1)N(c1cc(C)c(=O)n(C)c1)C2=O [Example 162, (R)-4-(4-chlorophenyl)-1-cyclopropyl-5-(1,5-dimethyl-6-oxo-1,6-dihydropyridin-3-yl)-3-(methoxymethyl)-4,5-dihydropyrrolo[3,4-c]pyrazol-6(1H)-one]",3700 nM,41 nM,39 nM,42 nM,> 10 µM,0.173 µM,0.0903 µM
"CCn1nc(C)c2c1C(=O)N(c1cc(C)c(=O)n(C)c1)C2c1ccc(Cl)cc1F (centres unmarked) [Example 170, 4-(4-chloro-2-fluorophenyl)-5-(1,5-dimethyl-6-oxo-1,6-dihydropyridin-3-yl)-1-ethyl-3-methyl-4,5-dihydropyrrolo[3,4-c]pyrazol-6(1H)-one]",630 nM,15 nM,16 nM,13 nM,> 10 µM,0.0331 µM,0.0159 µM
"CCn1nc2c(c1C)C(c1ccc(Cl)cc1F)N(c1cc(C)c(=O)n(C)c1)C2=O (centres unmarked) [Example 171, 4-(4-chloro-2-fluorophenyl)-5-(1,5-dimethyl-6-oxo-1,6-dihydropyridin-3-yl)-2-ethyl-3-methyl-4,5-dihydropyrrolo[3,4-c]pyrazol-6(2H)-one]",1500 nM,140 nM,140 nM,93 nM,> 10 µM,0.297 µM,0.174 µM
"COc1ncccc1-n1nc(C)c2c1C(=O)N(c1cc(C)c3nnc(C)n3c1)C2c1ccc(F)cc1F (centres unmarked) [Example 173, 4-(2,4-difluorophenyl)-5-(3,8-dimethyl-[1,2,4]triazolo[4,3-a]pyridin-6-yl)-1-(2-methoxypyridin-3-yl)-3-methyl-4,5-dihydropyrrolo[3,4-c]pyrazol-6(1H)-one]",> 37000 nM,58 nM,79 nM,87 nM,> 10 µM,0.282 µM,0.139 µM

# Now from value to compound, other results behind:
IC50 [1],IC50 (His-Brd4(44-477)),IC50 (His-Brd2(60-472)),IC50 (His-Brd3(20-477)),SMILES,IC (total growth inhibition) (K-562 cells),IC (total growth inhibition) (THP-1 cells),IC (total growth inhibition) (MV-4-11 cells)
2800 nM,24 nM,43 nM,28 nM,"COc1ncc(-n2nc3c(c2C(C)C)C(c2ccc(Cl)cc2)N(c2cc(C)c4nnc(C)n4c2)C3=O)c(OC)n1 (centres unmarked) [Example 67, 4-(4-chlorophenyl)-2-(2,4-dimethoxypyrimidin-5-yl)-5-(3,8-dimethyl-[1,2,4]triazolo-[4,3-a]pyridin-6-yl)-3-isopropyl-4,5-dihydropyrrolo[3,4-c]pyrazol-6(2H)-one]",> 10 µM,0.0385 µM,0.0196 µM
4600 nM,15 nM,17 nM,23 nM,"Cc1n[nH]c2c1[C@@H](c1ccc(Cl)cc1)N(c1cc(C)c3nnc(C)n3c1)C2=O [Example 165, (R)-4-(4-chlorophenyl)-5-(3,8-dimethyl-[1,2,4]triazolo[4,3-a]pyridin-6-yl)-3-methyl-4,5-dihydropyrrolo[3,4-c]pyrazol-6(1H)-one]",> 10 µM,0.0921 µM,0.0396 µM
14000 nM,< 11 nM,16 nM,13 nM,"Cc1cc(N2C(=O)c3c(c(CO)nn3C3CC3)[C@H]2c2ccc(Cl)cc2)cn2c(C)nnc12 [Example 166, (R)-4-(4-chlorophenol)-1-cyclopropyl-5-(3,8-dimethyl-[1,2,4]triazolo[4,3-a]pyridin-6-yl)-3-(hydroxymethyl)-4,5-dihydropyrrolo[3,4-c]pyrazol-6(1H)-one]",> 10 µM,0.0539 µM,0.0262 µM
11000 nM,59 nM,71 nM,30 nM,"Cc1nn(C(C)C)c2c1C(c1ccc(Cl)cc1F)N(c1cc(C)c3nnc(C)n3c1)C2=O (centres unmarked) [Example 168, 4-(4-chloro-2-fluorophenyl)-5-(3,8-dimethyl-[1,2,4]triazolo[4,3-a]pyridin-6-yl)-1-isopropyl-3-methyl-4,5-dihydropyrrolo[3,4-c]pyrazol-6(1H)-one]",> 10 µM,0.0949 µM,0.0403 µM
> 37000 nM,97 nM,220 nM,110 nM,"Cc1n[nH]c2c1C(c1ccc(F)cc1F)N(c1cc(C)c3nnc(C)n3c1)C2=O (centres unmarked) [Example 172, 4-(2,4-difluorophenyl)-5-(3,8-dimethyl-[1,2,4]triazolo[4,3-a]pyridin-6-yl)-3-methyl-4,5-dihydropyrrolo[3,4-c]pyrazol-6(2H)-one]",> 10 µM,0.782 µM,0.323 µM
12000 nM,52 nM,110 nM,72 nM,"Cc1nn(C(C)C)c2c1C(c1ccc(F)cc1F)N(c1cc(C)c3nnc(C)n3c1)C2=O (centres unmarked) [Example 174, 4-(2,4-difluorophenyl)-5-(3,8-dimethyl-[1,2,4]triazolo[4,3-a]pyridin-6-yl)-1-isopropyl-3-methyl-4,5-dihydropyrrolo[3,4-c]pyrazol-6(1H)-one]",> 10 µM,0.105 µM,0.0588 µM
13000 nM,34 nM,72 nM,37 nM,"Cc1cc(N2C(=O)c3nn(C(C)C)c(C)c3C2c2ccc(F)cc2F)cn2c(C)nnc12 (centres unmarked) [Example 175, 4-(2,4-difluorophenyl)-5-(3,8-dimethyl-[1,2,4]triazolo[4,3-a]pyridin-6-yl)-2-isopropyl-3-methyl-4,5-dihydropyrrolo[3,4-c]pyrazol-6(2H)-one]",> 10 µM,0.131 µM,0.0867 µM
